Values joined by “and” are separate entries in the source; they are usually repeats but may differ in a detail not shown here. Equal entries are not always repeated.
Experiments:
[1] = biological target: T1, Solute carrier organic anion transporter family member 1A4 (Rattus norvegicus, UniProt O35913); experiment: (§1) TP_TRANSPORTER: inhibition of Rocuronium uptake in Xenopus laevis oocytes; format: functional, cell-based; settings: oocyte
T1 sequence (O35913 whole entry): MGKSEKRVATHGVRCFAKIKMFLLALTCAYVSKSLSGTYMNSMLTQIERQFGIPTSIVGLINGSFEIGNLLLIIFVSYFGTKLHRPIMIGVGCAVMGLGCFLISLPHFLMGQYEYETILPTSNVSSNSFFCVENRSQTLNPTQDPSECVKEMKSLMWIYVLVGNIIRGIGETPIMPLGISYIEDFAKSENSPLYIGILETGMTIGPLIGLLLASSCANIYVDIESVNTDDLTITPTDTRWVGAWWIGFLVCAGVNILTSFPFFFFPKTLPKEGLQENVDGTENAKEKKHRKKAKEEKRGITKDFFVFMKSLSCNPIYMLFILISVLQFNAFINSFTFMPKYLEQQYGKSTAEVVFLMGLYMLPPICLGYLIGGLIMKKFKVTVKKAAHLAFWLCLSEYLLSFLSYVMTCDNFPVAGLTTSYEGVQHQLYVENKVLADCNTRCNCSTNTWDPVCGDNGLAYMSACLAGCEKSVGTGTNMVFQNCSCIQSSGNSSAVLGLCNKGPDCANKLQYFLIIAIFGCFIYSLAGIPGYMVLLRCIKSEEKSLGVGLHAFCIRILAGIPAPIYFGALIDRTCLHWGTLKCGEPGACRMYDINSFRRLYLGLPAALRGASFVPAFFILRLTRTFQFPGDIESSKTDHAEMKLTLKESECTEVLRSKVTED

[2] = biological target: T2, Solute carrier family 22 member 1 (Homo sapiens, UniProt O15245); experiment: (§2) TP_TRANSPORTER: inhibition of TBuMA uptake in Xenopus laevis oocytes; format: functional, cell-based; settings: oocyte
T2 sequence (O15245 whole entry): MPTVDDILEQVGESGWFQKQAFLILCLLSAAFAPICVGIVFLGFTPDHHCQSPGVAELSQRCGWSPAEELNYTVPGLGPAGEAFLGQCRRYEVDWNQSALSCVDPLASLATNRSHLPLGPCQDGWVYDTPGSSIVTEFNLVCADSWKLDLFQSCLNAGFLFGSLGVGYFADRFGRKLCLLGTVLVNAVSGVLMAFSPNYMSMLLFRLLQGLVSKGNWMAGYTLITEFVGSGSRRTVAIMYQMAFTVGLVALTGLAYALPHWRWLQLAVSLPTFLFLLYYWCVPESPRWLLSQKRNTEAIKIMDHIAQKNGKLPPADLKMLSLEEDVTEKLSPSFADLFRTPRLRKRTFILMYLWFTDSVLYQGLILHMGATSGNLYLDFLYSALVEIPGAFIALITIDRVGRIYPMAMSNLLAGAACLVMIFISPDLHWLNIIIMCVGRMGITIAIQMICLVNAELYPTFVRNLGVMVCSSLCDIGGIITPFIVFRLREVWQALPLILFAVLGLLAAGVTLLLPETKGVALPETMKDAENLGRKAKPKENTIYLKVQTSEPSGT

[3] = biological target: T3, Solute carrier family 22 member 1 (Rattus norvegicus, UniProt Q63089); experiment: as §1; format: functional, cell-based; settings: oocyte
T3 sequence (Q63089 whole entry): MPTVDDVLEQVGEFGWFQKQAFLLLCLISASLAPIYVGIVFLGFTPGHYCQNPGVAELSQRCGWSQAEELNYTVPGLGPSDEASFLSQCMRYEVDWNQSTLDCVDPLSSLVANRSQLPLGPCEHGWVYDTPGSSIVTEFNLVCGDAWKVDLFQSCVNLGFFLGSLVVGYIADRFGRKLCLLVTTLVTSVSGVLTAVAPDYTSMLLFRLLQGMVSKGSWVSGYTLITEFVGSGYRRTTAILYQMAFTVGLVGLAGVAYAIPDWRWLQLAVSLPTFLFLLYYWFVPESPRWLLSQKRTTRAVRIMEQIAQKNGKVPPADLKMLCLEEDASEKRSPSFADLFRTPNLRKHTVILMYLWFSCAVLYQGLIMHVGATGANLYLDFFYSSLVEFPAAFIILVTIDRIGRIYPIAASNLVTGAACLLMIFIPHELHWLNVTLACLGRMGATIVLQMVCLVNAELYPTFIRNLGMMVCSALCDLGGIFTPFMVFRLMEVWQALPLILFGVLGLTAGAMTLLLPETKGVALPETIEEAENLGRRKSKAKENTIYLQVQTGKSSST

[4] = biological target: T3, Solute carrier family 22 member 1; experiment: as §2; format: functional, cell-based; settings: oocyte
[5] = biological target: T4, Solute carrier organic anion transporter family member 1A2 (Homo sapiens, UniProt P46721); experiment: as §1; format: functional, cell-based; settings: oocyte
T4 sequence (P46721 whole entry): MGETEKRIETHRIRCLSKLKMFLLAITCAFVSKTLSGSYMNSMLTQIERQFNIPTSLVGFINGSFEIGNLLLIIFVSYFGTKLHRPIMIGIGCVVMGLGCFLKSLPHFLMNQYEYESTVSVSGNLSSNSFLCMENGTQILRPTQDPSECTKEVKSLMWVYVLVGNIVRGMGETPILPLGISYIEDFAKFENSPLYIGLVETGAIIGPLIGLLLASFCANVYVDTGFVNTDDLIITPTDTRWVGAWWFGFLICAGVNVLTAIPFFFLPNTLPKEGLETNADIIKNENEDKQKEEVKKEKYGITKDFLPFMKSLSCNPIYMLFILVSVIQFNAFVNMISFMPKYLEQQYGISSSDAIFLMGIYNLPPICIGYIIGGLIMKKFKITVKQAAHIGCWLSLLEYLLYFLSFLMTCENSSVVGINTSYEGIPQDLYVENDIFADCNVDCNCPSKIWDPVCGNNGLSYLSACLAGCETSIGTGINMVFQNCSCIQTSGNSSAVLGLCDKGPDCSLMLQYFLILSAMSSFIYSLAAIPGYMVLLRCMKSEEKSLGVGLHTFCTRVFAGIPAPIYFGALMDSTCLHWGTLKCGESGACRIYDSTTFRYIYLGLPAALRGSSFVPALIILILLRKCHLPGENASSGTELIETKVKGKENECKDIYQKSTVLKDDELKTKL

[6] = biological target: T2, Solute carrier family 22 member 1; experiment: (§3) TP_TRANSPORTER: uptake in Xenopus laevis oocytes; format: functional, cell-based; settings: oocyte
[7] = biological target: T3, Solute carrier family 22 member 1; experiment: as §3; format: functional, cell-based; settings: oocyte
[8] = substrate: [H][C@@]12CC[N+](C)(C[C@]1([H])C=C)[C@@]([H])([C@@H](O)c1ccnc3ccc(OC)cc13)C2; experiment: as §3; format: functional, cell-based, Oocyte
[9] = substrate: CCCC[N+](C)(CCCC)CCCC; experiment: as §3; format: functional, cell-based, Oocyte
[10] = substrate: CC[N+](C)(CC)CCNC(=O)c1ccc(N=[N+]=[N-])cc1; experiment: as §3; format: functional, cell-based, Oocyte
[11] = substrate: C=C[C@H]1C[N+]2(C)CC[C@H]1C[C@H]2[C@H](O)c1ccnc2ccc(OC)cc12; experiment: as §3; format: functional, cell-based, Oocyte

Molecule: C[C@@H]1O[C@@H](O[C@H]2C[C@@H](O)[C@]3(CO)[C@H]4[C@H](O)C[C@]5(C)[C@@H](C6=CC(=O)OC6)CC[C@]5(O)[C@@H]4CC[C@]3(O)C2)[C@H](O)[C@H](O)[C@H]1O [OUABAIN]
- Activity [1]: inhibitor [+]

Molecule: C=CC[N+]1([C@H]2C[C@H]3[C@@H]4CC[C@H]5C[C@H](O)[C@@H](N6CCOCC6)C[C@]5(C)[C@H]4CC[C@]3(C)[C@H]2OC(C)=O)CCCC1 [ROCURONIUM]
- Activity [2]: inhibitor [+]
- Activity [3]: inhibitor [+]

Molecule: C=C[C@H]1C[N+]2(C)CC[C@H]1C[C@@H]2[C@@H](O)c1ccnc2ccc(OC)cc12
- Activity [2]: inhibitor [+]
- Activity [4]: inhibitor [+]
- Activity [5]: inhibitor [+]

Molecule: C=C[C@H]1C[N@@]2CC[C@H]1C[C@@H]2[C@@H](O)c1ccnc2ccc(OC)cc12 [QUINIDINE]
- Activity [2]: inhibitor [+]
- Activity [4]: inhibitor [+]
- Activity [5]: inhibitor [+]

Molecule: CC1(CCC[N+]23CCC(CC2)CC3)N=N1
- Activity [6]: substrate [+]
- Activity [7]: substrate [+]

Molecule: CC[N+](C)(CC)CCNC(=O)c1ccc(N=[N+]=[N-])cc1.[I-] [AZIDOPROCAINAMIDE METHOIODIDE]
- Activity [2]: inhibitor [+]
- Activity [4]: inhibitor [+]
- Activity [5]: inhibitor [+]

Molecule: CO[C@H]1C[C@H](O[C@H]2CC[C@]3(C=O)[C@H]4CC[C@]5(C)[C@@H](C6=CC(=O)OC6)CC[C@]5(O)[C@@H]4CC[C@]3(O)C2)O[C@H](C)[C@H]1O[C@@H]1O[C@H](CO[C@@H]2O[C@H](CO)[C@@H](O)[C@H](O)[C@H]2O)[C@@H](O)[C@H](O)[C@H]1O
- Activity [1]: inhibitor [+]
- Activity [5]: inhibitor [+]

Molecule: CCC1C[N+]2(CCCC3(C)N=N3)C3CC45c6ccccc6N(C)C4C2CC1C3C5O (stereo unspecified)
- Activity [6]: substrate [+]
- Activity [7]: substrate [+]

B1: Solute carrier family 22 member 1 (Homo sapiens) (protein)
chain: MPTVDDILEQVGESGWFQKQAFLILCLLSAAFAPICVGIVFLGFTPDHHCQSPGVAELSQRCGWSPAEELNYTVPGLGPAGEAFLGQCRRYEVDWNQSALSCVDPLASLATNRSHLPLGPCQDGWVYDTPGSSIVTEFNLVCADSWKLDLFQSCLNAGFLFGSLGVGYFADRFGRKLCLLGTVLVNAVSGVLMAFSPNYMSMLLFRLLQGLVSKGNWMAGYTLITEFVGSGSRRTVAIMYQMAFTVGLVALTGLAYALPHWRWLQLAVSLPTFLFLLYYWCVPESPRWLLSQKRNTEAIKIMDHIAQKNGKLPPADLKMLSLEEDVTEKLSPSFADLFRTPRLRKRTFILMYLWFTDSVLYQGLILHMGATSGNLYLDFLYSALVEIPGAFIALITIDRVGRIYPMAMSNLLAGAACLVMIFISPDLHWLNIIIMCVGRMGITIAIQMICLVNAELYPTFVRNLGVMVCSSLCDIGGIITPFIVFRLREVWQALPLILFAVLGLLAAGVTLLLPETKGVALPETMKDAENLGRKAKPKENTIYLKVQTSEPSGT
- Km [8]: 11.5 µM and 12 µM
- Km [9]: 53 µM
- Km [10]: 101 µM
- Km [11]: 19.5 µM and 20 µM

B2: Solute carrier family 22 member 1 (Rattus norvegicus) (protein)
chain: MPTVDDVLEQVGEFGWFQKQAFLLLCLISASLAPIYVGIVFLGFTPGHYCQNPGVAELSQRCGWSQAEELNYTVPGLGPSDEASFLSQCMRYEVDWNQSTLDCVDPLSSLVANRSQLPLGPCEHGWVYDTPGSSIVTEFNLVCGDAWKVDLFQSCVNLGFFLGSLVVGYIADRFGRKLCLLVTTLVTSVSGVLTAVAPDYTSMLLFRLLQGMVSKGSWVSGYTLITEFVGSGYRRTTAILYQMAFTVGLVGLAGVAYAIPDWRWLQLAVSLPTFLFLLYYWFVPESPRWLLSQKRTTRAVRIMEQIAQKNGKVPPADLKMLCLEEDASEKRSPSFADLFRTPNLRKHTVILMYLWFSCAVLYQGLIMHVGATGANLYLDFFYSSLVEFPAAFIILVTIDRIGRIYPIAASNLVTGAACLLMIFIPHELHWLNVTLACLGRMGATIVLQMVCLVNAELYPTFIRNLGMMVCSALCDLGGIFTPFMVFRLMEVWQALPLILFGVLGLTAGAMTLLLPETKGVALPETIEEAENLGRRKSKAKENTIYLQVQTGKSSST
- Km [8]: 7.4 µM
- Km [9]: 34 µM
- Km [10]: 54 µM
- Km [11]: 17.3 µM and 17 µM
